In ChEMBL document CHEMBL1201862, “PubChem BioAssay data set” (2004):
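Compound exposure: 48 hours, 5 concentrations, 96-well plates. GI50: concentration for 50% inhibition of growth.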 Activity calls are given as the source filed them. Rule as the data show it: active = GI50 up to about 1.1 µM and inactive = higher.

Key:
Assay in all cases: growth of human tumour cells (NCI), 48 h
[1] = test system: EKVX
[2] = test system: SW-620
[3] = test system: SF-539
[4] = test system: COLO 205
[5] = test system: KM-20L2
[6] = test system: U-251
[7] = test system: MOLT-4
[8] = test system: KM12
[9] = test system: Malme-3M
[10] = test system: OVCAR-8
[11] = test system: SNB-78
[12] = test system: CCRF-CEM
[13] = test system: SN12C
[14] = test system: HCT-15
[15] = test system: LOX IMVI
[16] = test system: NCI-H460
[17] = test system: K562
[18] = test system: MDA-MB-231
[19] = test system: PC-3
[20] = test system: MDA-N

Row | Structure (SMILES) | GI50 [1] | GI50 [2] | GI50 [3] | GI50 [4] | GI50 [5] | GI50 [6] | GI50 [7] | GI50 [8] | GI50 [9] | GI50 [10] | GI50 [11] | GI50 [12] | GI50 [13] | GI50 [14] | GI50 [15] | GI50 [16] | GI50 [17] | GI50 [18] | GI50 [19] | GI50 [20]
1 | CN1CCCCC(C(O)(c2ccccc2)c2ccccc2)C1=O (stereo unspecified) | > 100 µM (inactive) | 11.9 µM (inactive) | > 100 µM (inactive) | 56.2 µM (inactive) | > 100 µM (inactive) | > 100 µM (inactive) | > 100 µM (inactive) | > 100 µM (inactive) | > 100 µM (inactive) | > 100 µM (inactive) | > 100 µM (inactive) | 85.5 µM (inactive) | > 100 µM (inactive) | 16.3 µM | > 100 µM (inactive) | 80 µM (inactive) | > 100 µM (inactive) |  |  | 
2 | CC(C)(C)C(=C[S+]([O-])/N=C/c1ccccc1)C(C)(C)C (stereo unspecified) | 52.1 µM (inactive) | 50 µM (inactive) | > 100 µM (inactive) | 41.1 µM (inactive) | 52.8 µM (inactive) | 25.1 µM (inactive) | 14 µM (inactive) | 44.6 µM (inactive) | 22.3 µM (inactive) | 59.4 µM (inactive) | 12.2 µM (inactive) | 17.8 µM (inactive) | 21.1 µM (inactive) | 23 µM | 18.8 µM (inactive) | 24.8 µM (inactive) | 1.23 µM (inactive) |  |  | 
3 | O=C(CC(=O)N1N=C(n2ccc3ccccc32)CC1c1ccccc1)Nc1ccccc1Cl (stereo unspecified) | > 100 µM (inactive) | > 100 µM (inactive) | > 100 µM (inactive) | > 100 µM (inactive) | > 100 µM (inactive) | > 100 µM (inactive) | > 100 µM (inactive) | > 100 µM (inactive) | > 100 µM (inactive) | > 100 µM (inactive) | > 100 µM (inactive) | > 100 µM (inactive) | > 100 µM (inactive) | > 100 µM | > 100 µM (inactive) | > 100 µM (inactive) | > 100 µM (inactive) |  |  | 
4 | CC(C)OP(=O)(OC(C)C)/C(=N/Nc1ccc([N+](=O)[O-])cc1)Nc1ccccc1 | 35.1 µM (inactive) | 33 µM (inactive) | 33.9 µM (inactive) | 21.6 µM (inactive) | 24.2 µM (inactive) | 21.2 µM (inactive) | 10.7 µM (inactive) | 20.8 µM (inactive) | 19.8 µM (inactive) | 34.8 µM (inactive) | 17.5 µM (inactive) | 18.4 µM (inactive) | 48.6 µM (inactive) | 32.4 µM | 33.7 µM (inactive) | 33 µM (inactive) | 21.1 µM (inactive) |  |  | 
5 | COC1=CC(=O)c2c(O)c3c(c(O)c2C1=O)C[C@](C)(O)C[C@@H]3O | 8.04 µM (inactive) | 3.92 µM (inactive) | 3.08 µM (inactive) | 1.77 µM (inactive) | > 100 µM (inactive) | 4.69 µM (inactive) | 7.8 µM (inactive) | 4.13 µM (inactive) | 1.03 µM (active) | 4.07 µM (inactive) | 3.85 µM (inactive) | 5.7 µM (inactive) | 3.63 µM (inactive) | 4.01 µM | 2.54 µM (inactive) | 1.65 µM (inactive) | 4.24 µM (inactive) | 7.74 µM (inactive) | 3.4 µM (inactive) | 1.88 µM (inactive)
6 | CC1=NC2(C(=O)O)C3(C(=O)O)N=C(C)OC3(C(F)(F)F)C2(C(F)(F)F)O1 (stereo unspecified) | > 100 µM (inactive) | > 100 µM (inactive) | > 100 µM (inactive) | > 100 µM (inactive) | > 100 µM (inactive) | > 100 µM (inactive) | > 100 µM (inactive) | > 100 µM (inactive) | > 100 µM (inactive) | > 100 µM (inactive) | > 100 µM (inactive) | > 100 µM (inactive) | > 100 µM (inactive) | > 10 µM | > 100 µM (inactive) | > 100 µM (inactive) | > 100 µM (inactive) |  |  | 
7 | COC(=O)C1CC2c3c(c4ccccc4n3C)CC(C1=O)N2C (stereo unspecified) | 57.1 µM (inactive) | 34.8 µM (inactive) | 32.5 µM (inactive) | 17.3 µM (inactive) | 39.8 µM (inactive) | 49.8 µM (inactive) | 29 µM (inactive) | 37.8 µM (inactive) | 43.9 µM (inactive) | 34.5 µM (inactive) | 47 µM (inactive) | 34.6 µM (inactive) | 67.8 µM (inactive) | 22.3 µM | 78.9 µM (inactive) | 45.3 µM (inactive) | 40.1 µM (inactive) |  |  | 
8 | COc1ccc(/N=C\c2ccc(N(CCC#N)CCC#N)cc2)cc1 | > 100 µM (inactive) | 61.1 µM (inactive) | 27.9 µM (inactive) | 44.2 µM (inactive) | 9.68 µM (inactive) | > 83.2 µM (inactive) | 66.5 µM (inactive) | 17.1 µM (inactive) | > 84.9 µM (inactive) | 74.6 µM (inactive) | > 100 µM (inactive) | 48.1 µM (inactive) | > 89.3 µM (inactive) | 17.4 µM | > 28.9 µM (inactive) | 43.1 µM (inactive) | 7.62 µM (inactive) | > 100 µM (inactive) | 47 µM (inactive) | 63.8 µM (inactive)
9 | N#CCC(=O)N1CCCOCCC1 | > 100 µM (inactive) | 6.73 µM (inactive) | > 100 µM (inactive) | 21.8 µM (inactive) | > 100 µM (inactive) | > 100 µM (inactive) | 0.46 µM (active) | > 100 µM (inactive) | > 100 µM (inactive) |  | > 100 µM (inactive) | > 100 µM (inactive) | > 100 µM (inactive) | 17.9 µM | 44.8 µM (inactive) | > 100 µM (inactive) | > 100 µM (inactive) |  |  | 
10 | COc1ccc(OC)c(/C(C)=N/NC(N)=S)c1 | > 100 µM (inactive) | > 100 µM (inactive) | > 100 µM (inactive) | > 100 µM (inactive) | > 100 µM (inactive) | > 100 µM (inactive) | 74.8 µM (inactive) | > 100 µM (inactive) | > 100 µM (inactive) | > 100 µM (inactive) | > 100 µM (inactive) | > 100 µM (inactive) | > 100 µM (inactive) | > 100 µM | > 100 µM (inactive) | > 100 µM (inactive) | > 100 µM (inactive) |  |  | 
11 | CC(C)N1CN(C(C(=O)N[C@@H]2C(=O)N3C2SC(C)(C)C3C(=O)O)c2ccc(O)cc2)CSC1=S (stereo partly specified) | > 100 µM (inactive) | 16.9 µM (inactive) | > 100 µM (inactive) | 33.8 µM (inactive) | > 100 µM (inactive) | > 100 µM (inactive) | > 100 µM (inactive) | > 100 µM (inactive) | > 100 µM (inactive) | > 100 µM (inactive) | > 100 µM (inactive) | 58.7 µM (inactive) | > 100 µM (inactive) | 43 µM | > 100 µM (inactive) | > 100 µM (inactive) | 31.8 µM (inactive) |  |  | 
12 | CC(=O)C1(O)CC2(c3ccccc3)C(=O)C1(c1ccccc1)C(c1ccccc1)=C2c1ccccc1 (stereo unspecified) | > 100 µM (inactive) | > 100 µM (inactive) | > 100 µM (inactive) | > 100 µM (inactive) | > 100 µM (inactive) | 81.3 µM (inactive) | 39.6 µM (inactive) | > 100 µM (inactive) | > 100 µM (inactive) | > 100 µM (inactive) | > 100 µM (inactive) | > 100 µM (inactive) | > 100 µM (inactive) | > 100 µM | > 100 µM (inactive) | > 100 µM (inactive) | 26.1 µM (inactive) |  |  | 
13 | CN(C)c1ccccc1CC(c1c[nH]c2ccccc12)c1c[nH]c2ccccc12 | 5.38 µM (inactive) | 6.7 µM (inactive) | 17.2 µM (inactive) | 2.82 µM (inactive) | 10.7 µM (inactive) | 12.1 µM (inactive) | 4.35 µM (inactive) | 4.36 µM (inactive) | 17.1 µM (inactive) | 11.2 µM (inactive) | 14.4 µM (inactive) | 9.51 µM (inactive) | 3.1 µM (inactive) | 12.2 µM | 11.8 µM (inactive) | 4.72 µM (inactive) | 10.7 µM (inactive) |  |  | 
